Results as given in PubChem BioAssay (NCI).
Values joined by “and” are separate entries in the source; they are usually repeats but may differ in a detail not shown here. Equal values may be shown once.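 Compound exposure: 48 hours, 5 concentrations, 96-well plates. GI50 marks 50% less growth. TGI: concentration producing complete growth inhibition.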

Experiments:
Assay in all cases: growth of human tumour cells (NCI), 48 h
[1] = system: CAKI-1 renal
[2] = system: SW-620 colon
[3] = system: SF-295 CNS
[4] = system: A549 NSCLC
[5] = system: UACC-257 melanoma
[6] = system: SNB-75 CNS
[7] = system: NCI-H460 lung
[8] = system: T-47D breast
[9] = system: MDA-MB-435
[10] = system: OVCAR-8 ovarian
[11] = system: ACHN renal
[12] = system: SK-MEL-5 melanoma

| Structure (SMILES) | TGI [1] | TGI [2] | TGI [3] | TGI [4] | TGI [5] | TGI [6] | TGI [7] | TGI [8] | TGI [9] | TGI [10] | TGI [11] | TGI [12] | GI50 [2] | GI50 [6] | GI50 [8] | GI50 [10] | GI50 [12] |
| --- | --- | --- | --- | --- | --- | --- | --- | --- | --- | --- | --- | --- | --- | --- | --- | --- | --- |
| Clc1cc(Cl)cc(C2ON=C(c3ccccc3)N2C23CC4CC(CC(C4)C2)C3)c1 (centres undefined) | > 10 µM | > 10 µM | > 10 µM | > 10 µM | > 10 µM | > 10 µM | > 10 µM | > 10 µM | > 10 µM | > 10 µM | > 10 µM | > 10 µM | – | – | – | – | – |
| CC(=O)O[C@H]1/C(=C/c2ccncc2)C[C@H]2[C@@H]3CC=C4C[C@@H](N5CCCC5)CC[C@]4(C)[C@H]3CC[C@]12C | 27.9 µM | 31.9 µM | 29.4 µM | 26.8 µM | 6.42 µM | 28.3 µM | 24.8 µM | 29.3 µM | 25.8 µM | 28.2 µM | 27.7 µM | 21.1 µM | – | – | – | – | – |
| CN(C)CCN=C1Nc2ccccc2C(=S)N2CSCC12 (centres undefined) | > 100 µM | > 100 µM | > 100 µM | > 100 µM | > 100 µM | > 100 µM | > 100 µM | > 100 µM | > 100 µM | > 100 µM | > 100 µM | > 100 µM | – | – | – | – | – |
| COCCCNC(=O)C1=C(C)NC(C)=C(C(=O)NCCCOC)C1 | > 100 µM | > 100 µM | > 100 µM | > 100 µM | > 100 µM | > 100 µM | > 100 µM | > 100 µM | > 100 µM | > 100 µM | > 100 µM | > 100 µM | – | – | – | – | – |
| CNC(=O)N(CCC#N)CCCN(C(=O)NC)c1ccccc1 | > 100 µM | > 100 µM | > 100 µM | > 100 µM | > 100 µM | > 100 µM | > 100 µM | > 100 µM | > 100 µM | > 100 µM | > 100 µM | > 100 µM | – | – | – | – | – |
| CC(C)NC(=O)OCc1c(COC(=O)NC(C)C)c(-c2cc[n+](COC(=O)C(C)(C)C)cc2)n2c1CCC2 | > 100 µM | > 100 µM | > 100 µM | > 100 µM | > 100 µM | > 100 µM | > 100 µM | > 100 µM | > 100 µM | > 100 µM | > 100 µM | > 100 µM | – | – | – | – | – |
| Cc1oc2c(Cl)cc(O)c(Cl)c2c2cccc1-2 | > 100 µM | > 100 µM | > 100 µM | > 100 µM | > 100 µM | 20.7 µM | > 100 µM | 16.5 µM | 70 µM | 82.6 µM | > 100 µM | 52.1 µM | – | – | – | – | – |
| O=c1oc2ccccc2c(O)c1/C=N/C(=S)NCCc1ccccc1 | > 100 µM | > 100 µM | > 100 µM | > 100 µM | > 100 µM | > 87.5 µM | > 70.3 µM | > 100 µM | > 75.3 µM | > 100 µM | > 85.6 µM | > 100 µM | – | – | – | – | – |
| CCOC(=O)CSc1nnc2cc(CN3CCCC3)c(-c3ccc(Cl)cc3)nn12 | > 100 µM | > 100 µM | > 100 µM | > 100 µM | > 100 µM | > 100 µM | > 100 µM | > 100 µM | > 100 µM | > 100 µM | > 100 µM | > 100 µM | – | – | – | – | – |
| CCOc1ccc(N/C(Cl)=C(Cl)\C(=C(\Nc2ccc(OCC)cc2)n2nnc3ccccc32)[N+](=O)[O-])cc1 | 3.49 µM | 5.71 µM | 57.7 µM | 66.8 µM | 28.6 µM | 42.5 µM | > 59.7 µM | 29.1 µM | 23.7 µM | 3.46 µM | 15.1 µM | 24.5 µM | – | – | – | – | – |
| c1ccc(-n2nc3ccc4nonc4c3n2)cc1 | > 100 µM | > 100 µM | > 100 µM | > 100 µM | > 100 µM | > 100 µM | > 100 µM | > 100 µM | > 100 µM | > 100 µM | > 100 µM | > 100 µM | – | – | – | – | – |
| CCOC(=O)C(C)NC(=O)C(C)NC(=O)C(C)NC(=O)C(C)NC(=O)C(C)NC(=O)OCc1ccccc1 (centres undefined) | > 100 µM | > 100 µM | > 100 µM | > 100 µM | > 100 µM | > 100 µM | > 100 µM | > 100 µM | > 100 µM | > 100 µM | > 100 µM | > 100 µM | – | – | – | – | – |
| NC(=S)N/N=C1\NC(=O)/C(=C/c2ccc3c(c2)OCO3)S1 | 71.8 µM | 88.8 µM | > 100 µM | > 100 µM | 76.1 µM | 52.6 µM | > 100 µM | 71.2 µM | 78.1 µM | 78 µM | > 100 µM | 37.7 µM | – | – | – | – | – |
| CC(=O)Oc1ccccc1/C=C/C(=O)/C=C/c1ccccc1OC(C)=O | 10.4 µM | 2.32 µM | 6.11 µM | 6.37 µM | 2.96 µM | 5.95 µM | 6.48 µM | 34.9 µM | 5.37 µM | 5.12 µM | 3.62 µM | 3.45 µM | – | – | – | – | – |
| COc1cc2cccc(N)c2cc1OC | > 100 µM | > 100 µM | > 100 µM | > 100 µM | > 100 µM | > 100 µM | > 100 µM | > 100 µM | > 100 µM | > 100 µM | > 100 µM | > 100 µM | – | – | – | – | – |
| COc1ccc2[nH]cc([C@@H]3C4CCC(C4)[C@H]3NCc3cccc(CN[C@H]4C5CCC(C5)[C@@H]4c4c[nH]c5ccc(OC)cc45)c3)c2c1 | 2.79 µM and 3.21 µM | 0.333 µM and 0.627 µM | 2.97 µM and 3.08 µM | 2.64 µM and 2.99 µM | 3.15 µM and 2.74 µM | 2.59 µM and 2.03 µM | 0.556 µM and 1.12 µM | 2.95 µM | 0.988 µM and 0.962 µM | 1.86 µM and 2.35 µM | 2.55 µM and 3.16 µM | 2.52 µM and 2.99 µM | 0.177 µM | 0.785 µM | 1.33 µM | 0.625 µM | 1.25 µM |
| CC(SC(=S)N1CCOCC1)C(=O)Nc1nnc(-c2ccccc2)o1 (centres undefined) | > 100 µM | > 100 µM | > 100 µM | > 100 µM | > 100 µM | > 100 µM | > 100 µM | > 100 µM | > 100 µM | > 100 µM | > 100 µM | > 100 µM | – | – | – | – | – |
